Measurements taken from US20220267288A1, “CARDIAC THERAPEUTIC” (priority 2019, published 2022).
pIC50: −log10 of the molar value.

Assays:
[1] = tested on: H9c2 cells; experiment: Mitochondrial membrane potential (Δψm) dissipation, TMRM dye; type: cell-based; conditions: Rattus norvegicus; H9c2 cells, TMRM dye
Protocol: H9c2 cell line was purchased from American Tissue Type Collection (ATCC) (Manassas, Va.). The cells were cultured in low-glucose DMEM growth media (Cat No: 31600, Thermo Fisher Scientific, Waltham, Mass.) supplemented with 1.5 g/L sodium bicarbonate, 25 mM HEPES, 10% fetal bovine serum (FBS) (GE Healthcare, Singapore), 100 units/mL penicillin, 100 μg/mL streptomycin and 250 ng/mL amphotericin B in 75-cm^2 tissue-culture flasks at 37° C. in a humidified atmosphere of 5% CO2. Cells were fed every 2-3 days and sub-cultured once 70-80% confluency was achieved to prevent the loss of differentiation potential. For differentiation, H9c2 cells were seeded at a density of 100,000 cells/well in 12-well plates. The cells were maintained for 1 day in low-glucose high-serum growth media to allow for cell attachment. Subsequently, cells were differentiated using 1 μM ATRA.
Dissipation of Δψm by each test compound was measured using mitochondrial permeable dye, tetramethylrhodamine methyl ester perchlorate (TMRM) (Thermo Fisher Scientific, Waltham, Mass.). […] The media was aspirated, the cells were washed with PBS and fluorescence was measured at 557 nm excitation and 570 nm emission wavelengths. […] The media was aspirated and then the cells were treated with dronedarone and the dissipation of Δψm by AADs was measured as described.

[2] = tested on: chronic atrioventricular block dog; experiment: Paroxysmal atrial fibrillation model in chronic atrioventricular block dogs; type: in vivo
Protocol: Experiments were performed using female beagle dogs weighing approximately 10 kg (n=4). Animals were obtained through Kitayama Labes Co., Ltd. (Nagano, Japan). All experiments were approved by the Toho University Animal Care and User Committee (No. 19-52-395) and performed according to the Guideline for the Care and Use of Laboratory Animals of Toho University.
The catheter ablation technique of atrioventricular node was employed as previously described^11,14. The dogs were anesthetized with pentobarbital sodium (30 mg/kg, i.v.). After intubation with a cuffed endotracheal tube, the respiration was controlled with room air using a volume-limited ventilator (SN-480-3; Shinano Manufacturing Co., Ltd., Tokyo, Japan). Tidal volume and respiratory rate were set at 20 mL/kg and 15 breaths/min, respectively. Heparin calcium (100 IU/kg, i.v.) was administered to prevent blood clotting. The surface lead II electrocardiogram was continuously monitored. A quad-polar electrodes catheter with a large tip of 4 mm (D7-DL-252; Cordis-Webster Inc., CA, USA) was inserted through the catheter sheath (FAST-CATH™ 406119; St. Jude Medical Daig Division, Inc., Minnetonka, Minn., USA) placed at the right femoral vein and positioned across the tricuspid valve under the guide of bipolar electrogram from the distal electrode pair. The optimal site for the atrioventricular node ablation; namely, the compact atrioventricular node, was determined on the basis of the intra-cardiac electrogram, of which a very small His deflection was recorded and atrial/ventricular voltage ratio was >2. The power source for the atrioventricular nodal ablation was obtained from an electrosurgical generator (MS-1500; Senko Medical Instrument Manufacturing Co., Ltd., Tokyo, Japan), which delivers continuous unmodulated radiofrequency energy at a frequency of 500 kHz. After determining the proper location, the radiofrequency energy of 20 W was delivered for 10 s from the tip electrode to an indifferent patch electrode positioned on the animal's back, which was continued then for 30 s if junctional ectopic complexes were induced. The endpoint of this procedure was the development of the complete atrioventricular block with an onset of stable idioventricular escaped rhythm. All surgical procedures described above were performed under the sterile condition.
The paroxysmal atrial fibrillation model was prepared as previously reported^12,13. More than 3 months after the induction of atrioventricular block, the dogs (n=4) were anesthetized with pentobarbital sodium (30 mg/kg, i.v.). After intubation with a cuffed endotracheal tube, the dogs were artificially ventilated with 0.5-1.5% isoflurane in oxygen using a volume-limited ventilator (SN-480-3; Shinano Manufacturing Co., Ltd.). Tidal volume and respiratory rate were set at 20 mL/kg and 15 breaths/min, respectively. The surface lead II electrocardiogram was obtained from the limb electrodes. […] An indwelling needle (Surflo® 18G; Terumo Corporation, Tokyo, Japan) was placed at the right femoral artery, through which the arterial blood pressure was measured.
Three sets of standard 6-French quad-polar electrodes catheter (Cordis-Webster Inc.) were used. First one was positioned at the high right atrium through the right femoral vein to electrically pace the sinus nodal area and to simultaneously obtain the right atrial electrogram. Second one was positioned in the esophagus via os to record to the left atrial electrogram. Third one was positioned at the inter-atrial septum of the right atrium through the left femoral vein to electrically induce paroxysmal atrial fibrillation as described below. The optimal sites of each catheter were determined by the temporal relationship between the bipolar atrial electrograms from the distal electrodes pair and P wave of the electrocardiogram. […]

[3] = high dose 3 mg/kg i.v., for 10-60 min

CCCCc1oc2ccc(NS(C)(=O)=O)cc2c1C(=O)c1ccc(OCCCN(CCCC)CCCC)cc1.Cl [Dronedarone]
pIC50 [1]: 6.30

Cl.[2H]c1c(NS(C)(=O)=O)c([2H])c2c(C(=O)c3ccc(OCCCN(CCCC)CCCC)cc3)c(CCCC)oc2c1[2H] [Poyendarone, Methanesulfonamide, N-(2-butyl-3-(4-(3-(dibutylamino)propoxy)benzoyl)-1-benzo(4,6,7-d3)-furan-5-yl)hydrochloride]
lethal ventricular arrhythmias or hemodynamic collapse ([2]; 0.3 and 3 mg/kg i.v., experimental period): No animals exerted any lethal ventricular arrhythmias or hemodynamic collapse leading to their death
duration of atrial fibrillation after burst pacing (typical tracing) ([2]; 20 min after 3 mg/kg, pre-drug control 6.9 s): 1.8 s
effect on AERP(CL200) ([2]; high dose 3 mg/kg i.v.): no significant change
effect on VERP(CL400) ([2]; high dose 3 mg/kg i.v.): no significant change
effect on cycle length of atrial fibrillation ([2]; high dose 3 mg/kg i.v.): tended to be prolonged, which did not achieve statistical significance
effect on mean blood pressure ([2]; high dose 3 mg/kg i.v.): hardly altered
effect on sinoatrial rate ([2]; high dose 3 mg/kg i.v.): hardly altered
effect on IACT(CL300) ([2]; high dose 3 mg/kg i.v., at 10 min): prolonged
effect on IACT(CL400) ([2]; high dose 3 mg/kg i.v., at 10 min and for 30-60 min): prolonged
effect on AERP(CL300) [2, 3]: prolonged
effect on AERP(CL400) [2, 3]: prolonged
effect on IACT(CL200) [2, 3]: prolonged
effect on duration of atrial fibrillation [2, 3]: shortened
effect on AERP(CL200) ([2]; low dose 0.3 mg/kg i.v.): no significant change
effect on AERP(CL300) ([2]; low dose 0.3 mg/kg i.v.): no significant change
effect on IACT(CL200) ([2]; low dose 0.3 mg/kg i.v.): did not alter
effect on IACT(CL300) ([2]; low dose 0.3 mg/kg i.v.): did not alter
effect on IACT(CL400) ([2]; low dose 0.3 mg/kg i.v.): did not alter
effect on VERP(CL400) ([2]; low dose 0.3 mg/kg i.v.): no significant change
effect on cycle length of atrial fibrillation ([2]; low dose 0.3 mg/kg i.v.): did not alter
effect on duration of atrial fibrillation ([2]; low dose 0.3 mg/kg i.v.): did not alter
effect on mean blood pressure ([2]; low dose 0.3 mg/kg i.v.): hardly altered
effect on sinoatrial rate ([2]; low dose 0.3 mg/kg i.v.): hardly altered
effect on AERP(CL400) ([2]; low dose 0.3 mg/kg i.v., at 20 min): prolonged
